Source: patent US20210009613A1, “ARYLPHOSPHINE OXIDES FOR INHIBITING KINASE ACTIVITY” (Shenzhen TargetRx, Inc., priority 2017, published 2021)

Experiments:
Ba/F3 [EML4-ALK] [1] = biological target: T1, Ba/F3 [EML4-ALK] (Homo sapiens, UniProt Q9UM73); assay: Cytotoxicity test (CellTiter-Glo), Ba/F3 [EML4-ALK]; assay type: cell-based; settings: 72 hours, CellTiter-Glo; read-out: IC50(nM) ALK (Ba/F3)
T1 construct: IC50(nM) ALK (Ba/F3); other: 72 hours, CellTiter-Glo; Ba/F3 [EML4-ALK]; fused on or other part: Q9HC35 (Echinoderm microtubule-associated protein-like 4)
T1 sequence (Q9UM73 whole entry, change not shown, the tested form may be a part): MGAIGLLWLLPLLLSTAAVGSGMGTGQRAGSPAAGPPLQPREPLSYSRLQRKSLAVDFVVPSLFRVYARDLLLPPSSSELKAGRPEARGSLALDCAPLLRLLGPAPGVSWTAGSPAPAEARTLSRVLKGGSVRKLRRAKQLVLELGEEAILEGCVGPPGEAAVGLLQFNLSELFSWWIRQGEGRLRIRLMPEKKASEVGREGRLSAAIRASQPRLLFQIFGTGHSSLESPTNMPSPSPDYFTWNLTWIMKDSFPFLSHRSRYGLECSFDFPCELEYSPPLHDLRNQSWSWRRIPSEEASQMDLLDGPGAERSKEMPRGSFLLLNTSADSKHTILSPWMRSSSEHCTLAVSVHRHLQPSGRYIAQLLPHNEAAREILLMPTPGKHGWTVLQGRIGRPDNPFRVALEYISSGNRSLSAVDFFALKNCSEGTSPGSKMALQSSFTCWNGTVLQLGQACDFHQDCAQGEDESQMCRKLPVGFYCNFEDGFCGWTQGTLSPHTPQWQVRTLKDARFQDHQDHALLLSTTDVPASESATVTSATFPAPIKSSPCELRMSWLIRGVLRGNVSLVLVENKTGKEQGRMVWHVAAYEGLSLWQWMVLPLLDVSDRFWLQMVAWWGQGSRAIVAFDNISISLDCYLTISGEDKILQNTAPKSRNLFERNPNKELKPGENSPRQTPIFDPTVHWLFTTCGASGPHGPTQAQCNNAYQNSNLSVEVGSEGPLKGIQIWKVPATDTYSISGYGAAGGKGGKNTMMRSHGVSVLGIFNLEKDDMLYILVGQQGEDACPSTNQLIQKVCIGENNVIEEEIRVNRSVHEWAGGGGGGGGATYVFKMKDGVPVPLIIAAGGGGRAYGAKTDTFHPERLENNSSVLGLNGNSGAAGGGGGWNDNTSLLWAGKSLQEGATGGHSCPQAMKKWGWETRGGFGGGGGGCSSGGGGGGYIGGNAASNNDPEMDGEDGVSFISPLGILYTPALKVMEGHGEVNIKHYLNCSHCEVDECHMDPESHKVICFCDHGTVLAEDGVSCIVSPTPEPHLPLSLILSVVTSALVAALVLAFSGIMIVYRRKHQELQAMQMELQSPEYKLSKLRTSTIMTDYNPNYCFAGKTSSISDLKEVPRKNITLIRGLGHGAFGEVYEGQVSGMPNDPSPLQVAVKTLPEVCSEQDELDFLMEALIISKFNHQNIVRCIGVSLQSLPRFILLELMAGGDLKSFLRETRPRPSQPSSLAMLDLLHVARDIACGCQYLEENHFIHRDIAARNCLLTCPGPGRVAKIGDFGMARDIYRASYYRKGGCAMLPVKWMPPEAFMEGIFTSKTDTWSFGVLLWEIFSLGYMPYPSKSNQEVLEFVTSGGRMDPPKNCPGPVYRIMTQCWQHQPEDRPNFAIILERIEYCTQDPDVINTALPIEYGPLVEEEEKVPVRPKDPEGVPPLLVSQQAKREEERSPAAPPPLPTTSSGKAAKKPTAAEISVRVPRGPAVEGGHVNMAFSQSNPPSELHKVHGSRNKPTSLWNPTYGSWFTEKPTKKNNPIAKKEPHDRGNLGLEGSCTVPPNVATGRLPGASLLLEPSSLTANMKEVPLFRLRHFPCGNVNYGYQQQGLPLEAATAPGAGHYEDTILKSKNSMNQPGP
Procedure: (§1) The in vitro anti-proliferative activity of the compounds of the present disclosure against three types of cells that are cultured in vitro was tested by CellTiter-Glo method.
(§2) Cell lines: Ba/F3 parental; Ba/F3 [EML4-ALK] (From WuXi PharmaTech) and Ba/F3 [EML4-ALK L1196M] (From WuXi PharmaTech); wherein, Ba/F3 parental was cultured in RPMI1640 medium containing 10 ng/ml IL-3, […], 100 U/ml penicillin, and 100 μg/ml streptomycin, Ba/F3 [EML4-ALK] and Ba/F3 [EML4-ALK L1196M] were cultured in RPMI1640 medium containing 10% fetal bovine serum, 100 U/ml penicillin, and 100 μg/ml streptomycin.
(§3) Reagents and materials: RPMI-1640 (GIBCO, Cat. No. A10491-01); fetal bovine serum (GIBCO, Cat. No. 10099141); 0.25% trypsin-EDTA (GIBCO, Cat. No. 25200); penicillin-streptomycin, liquid (GIBCO, Cat. No. 15140-122); DMSO (Sigma, Cat. No. D2650); CellTiter-Glo Test Kit (Promega, Cat. No. G7572), and 96-well plate (Corning, Cat. No. 3365).
(§4) Specific experimental procedures: • 1. The test compounds were dissolved in DMSO to make stock solutions and subjected to a series gradient dilution to give solutions with 10-fold working concentration. • 2. The cells in the logarithmic growth phase were diluted with the culture solution to adjust to the specific cell concentration, 90 μl of cell suspension was added to the 96-well plate to make the cell density reach the specified concentration. The plate was incubated in a incubator at 37° C., containing 5% carbon dioxide gas overnight. • 3. 10 μl drug solutions were added to each well of the 96-well plate inoculated with cells. 10 concentrations of the compounds were tested starting from the highest concentration of 20 μM with a 3-fold series gradient dilution in duplicate. • 4. After continuously cultured for 72 hours, the cells were detected by CellTiter-Glo for the cell viability. The dose-effect curve was made using GraphPad Prism software and IC50 was calculated.

Ba/F3 [EML4-ALK] [2] = assay: as above; assay type: cell-based; settings: ratio of Ba/F3 IC50 values
Procedure: as §1, §2, §3, §4

Ba/F3 [EML4-ALK L1196M] [3] = biological target: T2, Ba/F3 [EML4-ALK L1196M] (Homo sapiens, UniProt Q9UM73, L1196M, cells depend on it); assay: Cytotoxicity test (CellTiter-Glo), Ba/F3 [EML4-ALK L1196M]; assay type: cell-based; settings: 72 hours, CellTiter-Glo; read-out: IC50(nM) ALK[L1196M] (Ba/F3)
T2 construct: IC50(nM) ALK[L1196M]; (Ba/F3); other: 72 hours, CellTiter-Glo; Ba/F3 [EML4-ALK L1196M]; fused on or other part: Q9HC35 (Echinoderm microtubule-associated protein-like 4)
T2 sequence (Q9UM73 whole entry L1196M, the tested form may be a part): as the sequence (Q9UM73 whole entry, change not shown, the tested form may be a part) above, with L1196M counted along it
Procedure: as §1, §2, §3, §4

Ba/F3 [EML4-ALK L1196M] [4] = assay: as above; assay type: cell-based; settings: ratio of Ba/F3 IC50 values
Procedure: as §1, §2, §3, §4

ALK [WT] = ALK [WT] (Homo sapiens, UniProt Q9UM73); assay: Kinase inhibition assay, ALK [WT]; assay type: biochemical
Chain of ALK [WT] (Q9UM73 19-1620): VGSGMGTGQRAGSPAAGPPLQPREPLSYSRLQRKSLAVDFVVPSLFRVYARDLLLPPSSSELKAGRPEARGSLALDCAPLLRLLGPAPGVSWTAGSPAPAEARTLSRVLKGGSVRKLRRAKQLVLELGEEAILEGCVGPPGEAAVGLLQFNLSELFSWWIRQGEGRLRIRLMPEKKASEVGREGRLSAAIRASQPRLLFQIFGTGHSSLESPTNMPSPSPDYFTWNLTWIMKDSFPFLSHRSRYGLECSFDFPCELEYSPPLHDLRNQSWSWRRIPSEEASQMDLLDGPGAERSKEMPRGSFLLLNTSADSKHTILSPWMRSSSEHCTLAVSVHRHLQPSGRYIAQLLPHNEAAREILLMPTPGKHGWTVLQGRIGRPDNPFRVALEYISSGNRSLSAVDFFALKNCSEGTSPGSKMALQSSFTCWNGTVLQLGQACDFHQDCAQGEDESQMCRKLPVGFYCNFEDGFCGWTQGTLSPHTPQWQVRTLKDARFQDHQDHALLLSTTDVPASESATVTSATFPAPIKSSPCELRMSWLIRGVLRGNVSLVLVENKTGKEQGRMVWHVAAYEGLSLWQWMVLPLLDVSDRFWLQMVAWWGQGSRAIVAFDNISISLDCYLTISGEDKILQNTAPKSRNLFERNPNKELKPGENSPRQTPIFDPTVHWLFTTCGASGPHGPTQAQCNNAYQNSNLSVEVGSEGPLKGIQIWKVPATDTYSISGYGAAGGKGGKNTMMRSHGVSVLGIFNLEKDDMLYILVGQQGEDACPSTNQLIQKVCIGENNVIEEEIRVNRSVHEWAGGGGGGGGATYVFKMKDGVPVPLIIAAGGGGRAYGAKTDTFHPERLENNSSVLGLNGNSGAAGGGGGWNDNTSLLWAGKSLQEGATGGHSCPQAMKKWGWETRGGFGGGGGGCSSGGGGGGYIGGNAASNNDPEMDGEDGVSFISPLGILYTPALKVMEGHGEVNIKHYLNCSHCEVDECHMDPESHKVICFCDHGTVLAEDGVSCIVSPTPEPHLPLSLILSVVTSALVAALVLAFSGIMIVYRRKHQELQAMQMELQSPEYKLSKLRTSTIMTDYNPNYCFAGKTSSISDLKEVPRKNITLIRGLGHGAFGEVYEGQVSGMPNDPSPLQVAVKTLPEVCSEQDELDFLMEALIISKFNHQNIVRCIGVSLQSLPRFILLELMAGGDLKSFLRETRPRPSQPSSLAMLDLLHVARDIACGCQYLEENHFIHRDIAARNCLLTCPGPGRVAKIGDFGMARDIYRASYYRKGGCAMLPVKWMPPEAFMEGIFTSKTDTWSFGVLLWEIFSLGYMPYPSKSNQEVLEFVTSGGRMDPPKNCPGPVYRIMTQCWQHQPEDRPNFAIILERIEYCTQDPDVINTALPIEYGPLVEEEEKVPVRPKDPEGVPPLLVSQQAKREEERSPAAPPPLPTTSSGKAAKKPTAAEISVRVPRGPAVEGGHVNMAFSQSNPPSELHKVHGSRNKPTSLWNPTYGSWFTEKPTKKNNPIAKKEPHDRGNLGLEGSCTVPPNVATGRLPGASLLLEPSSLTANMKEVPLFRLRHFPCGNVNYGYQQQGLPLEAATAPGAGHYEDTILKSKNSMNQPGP
Procedure: (§5) Compound preparation: The test compounds were dissolved in DMSO to make 20 mM stock solutions. The compounds were diluted in DMSO to 0.1 mM (a dilution with 100 times the final concentration) before use, and a 3-fold series gradient dilution with 11 concentrations was made. Dilutions with 4 times of the final concentration were prepared by diluting with buffer when dosing.
(§6) Kinase assay: after preparing the buffer solution, the enzyme was mixed with pre-diluted compounds with different concentrations, and placed at room temperature for 30 minutes in duplicate. The corresponding substrate and ATP were added thereto and reacted at room temperature for 60 minutes (both a negative and a positive control were set). After the reaction, antibody was added for detection, and after incubation at room temperature for 60 minutes, Evnvision detection was carried out, and data was collected. Data was analyzed and fit according to XLfit5 software. IC50 was calculated by the following formula: (IC50=[(ABS test-ABS begin)/(ABS control-ABS begin)]×100).

ALK [L1196M] = ALK [L1196M] (Homo sapiens, UniProt Q9UM73, L1196M); assay: Kinase inhibition assay, ALK [L1196M]; assay type: biochemical
Chain of ALK [L1196M] (Q9UM73 19-1620 L1196M): as the sequence (Q9UM73 19-1620) above, with L1178M counted along it
Procedure: as §5, §6

Ba/F3 parental = assay: Cytotoxicity test (CellTiter-Glo), Ba/F3 parental; assay type: cell-based; settings: Mus musculus, BaF3, 72 hours
Procedure: as §1, §2, §3, §4

SMILES | GI50 (Ba/F3 [EML4-ALK] [1]) | Selectivity parental/ALK (Ba/F3 [EML4-ALK] [2]) | GI50 (Ba/F3 [EML4-ALK L1196M] [3]) | Selectivity parental/ALK[L1196M] (Ba/F3 [EML4-ALK L1196M] [4]) | IC50 (ALK [WT]) | IC50 (ALK [L1196M]) | IC50 (Ba/F3 parental)
COc1nc(N2CCC(N(C)C)CC2)ccc1Nc1ncc(Cl)c(Nc2ccccc2P(C)(C)=O)n1 [Example 1, (2-((5-chloro-2-((6-(4-(dimethylamino)piperidin-1-yl)-2-methoxypyridin-3-)amino)pyrimidin-4-yl)amino)phenyl)dimethylphosphine oxide] | ≤ 50 nM | 50~100 | 50 to 100 nM | 0~50 | ≤ 5 nM | 5 to 10 nM | ≥ 1000 nM
COc1nc(N2CCN(C)CC2)ccc1Nc1ncc(Cl)c(Nc2ccccc2P(C)(C)=O)n1 [Example 2, (2-((5-chloro-2-((2-methoxy-6-(4-methylpiperazin-1-yl)pyridin-3-yl)amino)pyrimidin-4-yl)amino)phenyl)dimethylphosphine oxide] | ≤ 50 nM | 50~100 | 50 to 100 nM | 0~50 | ≤ 5 nM | ≤ 5 nM | ≥ 1000 nM
COc1nc(N(C)CCN(C)C)ccc1Nc1ncc(Cl)c(Nc2ccccc2P(C)(C)=O)n1 [Example 3, (2-((5-chloro-2-((6-((2-(dimethylamino)ethyl)(methyl)amino)-2-methoxypyridin-3-yl)amino)pyrimidin-4-yl)amino)phenyl)dimethylphosphine oxide] | ≤ 50 nM | 100~200 | 50 to 100 nM | 50~100 | ≤ 5 nM | 5 to 10 nM | ≥ 1000 nM
COc1nc(N2CCC(N3CCN(C)CC3)CC2)ccc1Nc1ncc(Cl)c(Nc2ccccc2P(C)(C)=O)n1 [Example 4, (2-((5-chloro-2-((2-methoxy-6-(4-(4-methylpiperazin-1-yl)piperidin-1-yl)pyridin-3-yl)amino)pyrimidin-4-yl)amino)phenyl)dimethylphosphine oxide] | ≤ 50 nM | 50~100 | 50 to 100 nM | 0~50 | 5 to 10 nM | 5 to 10 nM | ≥ 1000 nM
CC(C)Oc1nc(N2CCC(N(C)C)CC2)ccc1Nc1ncc(Cl)c(Nc2ccccc2P(C)(C)=O)n1 [Example 5, (2-((5-chloro-2-((6-(4-(dimethyaminono)piperidin-1-yl)-2-isopropoxypyridin-3-yl)amino)pyrimidin-4-yl)amino)phenyl)dimethylphosphine oxide] | ≤ 50 nM | 100~200 | 50 to 100 nM | 50~100 | 5 to 10 nM | ≤ 5 nM | ≥ 1000 nM
CC(C)Oc1nc(N2CCN(C)CC2)ccc1Nc1ncc(Cl)c(Nc2ccccc2P(C)(C)=O)n1 [Example 6, (2-((5-chloro-2-((2-isopropoxy-6-(4-methylpiperazin-1-yl)pyridin-3-yl)amino)pyrimidin-4-yl)amino)phenyl)dimethylphosphine oxide] | ≤ 50 nM | 200~400 | 100 to 400 nM | 50~100 | 5 to 10 nM | ≤ 5 nM | ≥ 1000 nM
CC(C)Oc1nc(N(C)CCN(C)C)ccc1Nc1ncc(Cl)c(Nc2ccccc2P(C)(C)=O)n1 [Example 7, (2-((5-chloro-2-((6-((2-(dimethylamino)ethyl)(methyl)amino)-2-isopropoxypyridin-3-yl)amino)pyrimidin-4-yl)amino)phenyl)dimethylphosphine oxide] | ≤ 50 nM | 200~400 | 50 to 100 nM | 50~100 | 10 to 50 nM | 5 to 10 nM | ≥ 1000 nM
CC(C)Oc1nc(N2CCC(N3CCN(C)CC3)CC2)ccc1Nc1ncc(Cl)c(Nc2ccccc2P(C)(C)=O)n1 [Example 8, (2-((5-chloro-2-((2-isopropoxy-6-(4-(4-methylpiperazin-1-yl)piperidin-1-yl)pyridin-3-yl)amino)pyrimidin-4-yl)amino)phenyl)dimethyl phosphine oxide] | ≤ 50 nM | 200~400 | 100 to 400 nM | 50~100 | 5 to 10 nM | 5 to 10 nM | ≥ 1000 nM
CN(C)C1CCN(c2ccc(Nc3ncc(Cl)c(Nc4ccccc4P(C)(C)=O)n3)c(OCC(F)(F)F)n2)CC1 [Example 9, (2-((5-chloro-2-((6-(4-(dimethyaminono)piperidin-1-yl)-2-(2,2,2-trifluoroethoxy)pyridin-3-yl)amino)pyrimidin-4-yl)amino)phenyl)dimethylphosphine oxide] | ≤ 50 nM | 200~400 | 50 to 100 nM | 50~100 | ≤ 5 nM | 5 to 10 nM | ≥ 1000 nM
CN1CCN(c2ccc(Nc3ncc(Cl)c(Nc4ccccc4P(C)(C)=O)n3)c(OCC(F)(F)F)n2)CC1 [Example 10, (2-((5-chloro-2-((6-(4-methylpiperazin-1-yl)-2-(2,2,2-trifluoroethoxy)pyridin-3-yl)amino)pyrimidin-4-yl)amino)phenyl)dimethylphosphine oxide] | ≤ 50 nM | 100~200 | 100 to 400 nM | 50~100 | ≤ 5 nM | 5 to 10 nM | ≥ 1000 nM
CN(C)CCN(C)c1ccc(Nc2ncc(Cl)c(Nc3ccccc3P(C)(C)=O)n2)c(OCC(F)(F)F)n1 [Example 11, (2-((5-chloro-2-((6-((2-(dimethylamino)ethyl)(methyl)amino)-2-(2,2,2-trifluoroethoxy)pyridin-3-yl)amino)pyrimidin-4-yl)amino)phenyl)dimethylphosphine oxide] | 50 to 100 nM | 100~200 | 100 to 400 nM | 50~100 | ≤ 5 nM | 10 to 50 nM | ≥ 1000 nM
CN1CCN(C2CCN(c3ccc(Nc4ncc(Cl)c(Nc5ccccc5P(C)(C)=O)n4)c(OCC(F)(F)F)n3)CC2)CC1 [Example 12, (2-((5-chloro-2-((6-(4-(4-methylpiperazin-1-yl)piperidin-1-yl)-2-(2,2,2-trifluoroethoxy)pyridin-3-yl)amino)pyrimidin-4-yl)amino)phenyl)dimethylphosphine oxide] | ≤ 50 nM | 111.30 | 50 to 100 nM | 0~50 | 5 to 10 nM | 10 to 50 nM | ≥ 1000 nM
COc1nc(N2CCC(N(C)C)CC2)ccc1Nc1nc(Nc2ccccc2P(C)(C)=O)c2cc[nH]c2n1 [Example 13, (2-((2-((6-(4-(dimethylamino)piperidin-1-yl)-2-methoxypyridin-3-yl)amino)-7H-pyrrolo [2,3-d]pyrimidin-4-yl)amino)phenyl)dimethylphosphine oxide] | ≤ 50 nM | 0~50 | 50 to 100 nM | 0~50 | 5 to 10 nM | ≤ 5 nM | 400 to 1000 nM
